Assay results taken from patent publication US11884708B2, “Stapled peptide inhibitors of nemo as potential anti-inflammatory and anti-cancer drugs” (INSTITUT PASTEUR, priority 2015, dated 2024).
Read-outs that look alike come from different tables or passages of the source. Where a SMILES comes first, the peptide text is derived from it. Bridges are numbered along the chain shown (N, C = ends). Where no end group is shown, it is not given here. [ ]: non-standard residue; d: D form. The star is where a group is joined. BODIPYFLEthylmaleimide = Cc1cc(C)n2c1C=C1C=CC(CCC(=O)NCCN3C(=O)CC(*)C3=O)=[N+]1[B-]2(F)F; R8 = C=CCCCCCC[C@@](C)(N)C(=O)O; S5 = C=CCCC[C@](C)(N)C(=O)O

What was measured:
NF-κB pathway = NF-κB pathway (Mus musculus, UniProt O88522); test: NF-κB inhibition assay, LPS-stimulated 70Z3-C3 lacZ reporter cells; assay type: cell-based; settings: 70Z3-C3 cells, 2 h peptide then LPS 4 h, N.I = No inhibition observed; for IC50: read-out: IC 50 NF-κB inhibition
Sequence of NF-κB pathway (O88522 whole entry): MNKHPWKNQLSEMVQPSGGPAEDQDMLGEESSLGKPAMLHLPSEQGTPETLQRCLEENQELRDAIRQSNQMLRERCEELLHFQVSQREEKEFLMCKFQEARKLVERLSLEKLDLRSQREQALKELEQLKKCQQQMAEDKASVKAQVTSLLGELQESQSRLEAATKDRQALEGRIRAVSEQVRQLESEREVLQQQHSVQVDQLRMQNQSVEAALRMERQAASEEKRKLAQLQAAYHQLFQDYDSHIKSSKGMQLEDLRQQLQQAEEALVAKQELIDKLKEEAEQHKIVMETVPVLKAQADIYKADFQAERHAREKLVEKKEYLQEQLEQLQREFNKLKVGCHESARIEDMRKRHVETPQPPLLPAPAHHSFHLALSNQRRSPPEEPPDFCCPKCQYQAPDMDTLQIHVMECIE
Text: The stable cell line of pre-B lymphocyte 70Z3-C3 cells expressing the lacZ reporter gene under the control of NF-κB was previously described. OCI-Ly3 (ABC-DLBCL, MALT1 dependent) and OCI-Ly7 (GCB-DLBCL). U2932 (ABC-DLBCL, MALT1 independent) were purchased from DSMZ (Deutsche Sammlung von Mikroorganismen and Zellkulturen) and HLY1 (ABC-DLBCL, MALT1 independent). Jurkat T-cells were obtained after transduction of lentiviruses containing a NF-κB reporter luciferase gene as previously described. All cell lines were grown in RPMI 1640 medium supplemented with 10% FBS, 10 μg/ml of streptomycin, 10 U/ml of penicillin and kept at 37° C., in a 5% CO2 humidified incubator. 0.05 mM of β-mercaptoethanol was added for 70Z3-C3. Primary and secondary antibodies were as following: polyclonal rabbit anti NF-κB p65, (sc-372, Santa Cruz Biotechnology, Inc) Alexa-488 coupled goat anti-rabbit IgG1 (Invitrogen) NF-κB inhibition assay was almost similar to those previously described in [1], except that luminescence data were monitored with a Centro XS^3, LB960 luminometer (Berthold technologies.), which is more sensitive. All experiments were performed in duplicates in 96-well plates. […] After 4 h incubation, cells were centrifuged 7 min at 400×g, at 4° C.

CC2-LZ domain of NEMO = CC2-LZ domain of NEMO (Mus musculus, UniProt O88522); test: Fluorescence anisotropy/polarization binding assay; settings: for Kd: fixed peptide concentration 0.1 μM
Sequence of CC2-LZ domain of NEMO (O88522 242-343 limits assumed): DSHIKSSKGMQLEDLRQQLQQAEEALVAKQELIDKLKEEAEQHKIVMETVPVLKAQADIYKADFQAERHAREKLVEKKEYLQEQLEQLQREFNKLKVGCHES
Procedure: Measurements were performed on a Tecan infinite F500 equipped with polarizing filters and using excitation and emission wavelengths at 485 nm and 535 nm, respectively. Anisotropy data were calculated using the Magellan software version 6.5. Prior experiments, the mouse CC2-LZ was extensively dialyzed in binding buffer containing 20 mM HEPES pH 7.4, 100 mM NaCl, and 0.05% P20 detergent (v/v). All experiments were performed in a 384 well plate (vol 25 μl) at room temperature. The BODIPY®-labeled peptide concentrations were fixed at 0.1 or 10 μM whereas the CC2-LZ concentration varied from 0 to 100 μM. Reference calibrated at 22 mP, was based on the fluorescence of the peptide alone. Each experimental binding curve was determined from at least 10 independent concentration points. The G-factor was calculated as previously described in Agou et al. [7], with a value of 0.75, which was observed constant within 5% upon all titrations. For analysis, the blank value corresponding to the value of buffer alone, was subtracted from all titration data.
All NEMO peptides were conjugated to an extra N-terminal cysteine with the fluorophore BODIPY® or FITC to determine their binding affinity for the CC2-LZ domain of NEMO (also called NOA or UBAN) by fluorescence polarization. For each peptide titration, various concentration of the target ranging from 0 to 100 μM and a fixed concentration of peptide at 0.1 or 10 μM were used at 25° C. […] For these reasons, all further titration experiments were performed with a fixed peptide concentration of 0.1 μM unless otherwise indicated.

[1] = Temperature-induced denaturation followed by CD; assay type: physicochemical; settings: 30 μM or 300 μM, ΔCp ≈ 0
Procedure: Temperature-induced denaturation experiments were performed by measuring the ellipticity at 222 nm from 1° C. to 95° C. in 1° C. steps, at a rate of 1° C./min, with a 2 nm bandwidth. Thermodynamic parameters including the melting temperature (Tm) and the van't Hoff enthalpy change at the melting temperature (ΔHm) were determined by fitting the denaturation curves with the Gibbs-Helmholtz equation as described elsewhere, [10]. The heat capacity change (ΔCp) was assumed to be 0 as judged by ΔHm which yielded similar values within 10% at two independent peptide concentrations (30 and 300 μM). The ellipticity was converted to differential extinction coefficient Δε (M^−1·cm^−1) per residue taking into account the peptide concentration determined by amino acid analysis.
Thermal stability of the peptides was also investigated by performing thermal denaturation profiles followed by CD (FIGS. 1 C and D and Table III). […] Indeed, the helicity of UBI-Aib (49%) is only 1.16-fold increased at 1° C. compared to UBI (42%), while its melting temperature (Tm=−8° C.) is 2.25 times higher than that of UBI (Tm=−18° C.).

[2] = CD spectroscopy, α-helical content; assay type: physicochemical; settings: 50 μM peptide, phosphate buffer pH 7.0, UBI in TFE taken as 100%
70Z3-C3 cells = test: Cellular uptake of BODIPY-labeled peptides by FACS; assay type: cell-based; settings: 10 μM labeled peptide, 2 h, 37° C.
Procedure: 2.2×10^5 cells in 100 μl of 70Z3-C3 were incubated with either 10 μM or with various doses of 10 μM, 5 μM and 1 μM of labeled-peptides at 37° C., 5% CO2. Similarly to fluorescence microscopy experiments, cells alone or incubated with BODIPY®-labeled BSA (ref) or BODIPY®-UBI devoid of the antennapedia cell penetrating sequence were used as negative control, whereas cells with BA-UBI [1] at 10 μM were used as positive control. After 2 h incubation, cells were washed 4 times with PBS at room temperature, and finally diluted 1:3 in PBS before subjected to FACS analysis. Along with the BODIPY® fluorophore the fluorescence intensity was recorded at 525±25 nm using the Gallios Flow cytometer (Beckman Coulter) to analyse each cells sample. Each internalization peptide was assessed by gating a population of 15,000 events and the data were analysed using Kaluza software version 1.2.
For determination of cellular uptake by flow cytometry, the BA-UBI-SAHND306-Q313 stapled peptide was first incubated with 2.2×10^5 70Z3-C3 cells in […] either at 4° C. or 37° C. for 2 h. Bodipy-labeled BSA, bodipy alone and bodipy-UBI were used as negative controls to verify the washing quality and efficient removal of any non-specific binding at the cell surface before FACS analysis. […] After 2 h of incubation, cells were washed four times with PBS at room temperature and diluted at 1:3 in PBS for FACS analysis. Samples were analyzed as previously described in the European patent (No: 15307137.8).

Which IC50 (NF-κB pathway) does the source give for `CC[C@H](C)[C@@H]1NC(=O)[C@H](CC(=O)O)NC(=O)[C@H](C)NC(=O)[C@H](CCC(N)=O)NC(=O)[C@](C)(NC(=O)[C@H](CCCCN)NC(=O)[C@H](CC(C)C)NC(=O)[C@H](CCCCN)NC(=O)[C@H](CCCCN)NC(=O)[C@H](Cc2c[nH]c3ccccc23)NC(=O)[C@H](CCCCN)NC(=O)[C@H](CCSC)NC(=O)[C@H](CCCNC(=N)N)NC(=O)[C@H](CCCNC(=N)N)NC(=O)[C@H](CC(N)=O)NC(=O)[C@H](CCC(N)=O)NC(=O)[C@H](Cc2ccccc2)NC(=O)[C@H](Cc2c[nH]c3ccccc23)NC(=O)[C@@H](NC(=O)[C@H](CCCCN)NC(=O)[C@@H](NC(=O)[C@H](CCC(N)=O)NC(=O)[C@H](CCCNC(=N)N)NC(=O)[C@H](CSC2CC(=O)N(CCNC(=O)CCC3=[N+]4C(=Cc5c(C)cc(C)n5[B-]4(F)F)C=C3)C2=O)NC(C)=O)[C@@H](C)CC)[C@@H](C)CC)CCCCCCC=CCCC[C@@](C)(C(=O)N[C@@H](CCCNC(=N)N)C(=O)N[C@@H](Cc2ccccc2)C(=O)N[C@@H](CCC(N)=O)C(=O)N[C@@H](C)C(=O)N[C@@H](CCC(=O)O)C(=O)N[C@@H](CCCNC(=N)N)C(=O)N[C@@H](Cc2c[nH]cn2)C(=O)N[C@@H](C)C(=O)N[C@@H](CCCNC(=N)N)C(=O)N[C@@H](CCC(=O)O)C(=O)N[C@@H](CCCCN)C(N)=O)NC(=O)[C@H](CCCCN)NC(=O)[C@H](Cc2ccc(O)cc2)NC1=O` (single isomer, unassigned) [A-UBI-SAHN A303-A310 (B)] here?
The IC50 was 600 nM.

Which Kd (CC2-LZ domain of NEMO; peptides with antennapedia, read-out: KD) does the source give for `CC[C@H](C)[C@H](NC(=O)[C@H](CCCCN)NC(=O)[C@@H](NC(=O)[C@H](CCC(N)=O)NC(=O)[C@H](CCCNC(=N)N)NC(=O)[C@H](CSC1CC(=O)N(CCNC(=O)CCC2=[N+]3C(=Cc4c(C)cc(C)n4[B-]3(F)F)C=C2)C1=O)NC(C)=O)[C@@H](C)CC)C(=O)N[C@@H](Cc1c[nH]c2ccccc12)C(=O)N[C@@H](Cc1ccccc1)C(=O)N[C@@H](CCC(N)=O)C(=O)N[C@@H](CC(N)=O)C(=O)N[C@@H](CCCNC(=N)N)C(=O)N[C@@H](CCCNC(=N)N)C(=O)N[C@@H](CCSC)C(=O)N[C@@H](CCCCN)C(=O)N[C@@H](Cc1c[nH]c2ccccc12)C(=O)N[C@@H](CCCCN)C(=O)N[C@@H](CCCCN)C(=O)N[C@@H](CC(C)C)C(=O)N[C@@H](CCCCN)C(=O)N[C@@H](C)C(=O)N[C@@H](CCC(N)=O)C(=O)N[C@@H](C)C(=O)N[C@]1(C)CCCCCCC=CCCC[C@@](C)(C(=O)N[C@@H](C)C(=O)N[C@@H](CCC(=O)O)C(=O)N[C@@H](CCCNC(=N)N)C(=O)N[C@@H](Cc2c[nH]cn2)C(=O)N[C@@H](C)C(=O)N[C@@H](CCCNC(=N)N)C(=O)N[C@@H](CCC(=O)O)C(=O)N[C@@H](CCCCN)C(N)=O)NC(=O)[C@H](Cc2ccccc2)NC(=O)[C@H](CCCNC(=N)N)NC(=O)[C@H](C)NC(=O)[C@H](CCCCN)NC(=O)[C@H](Cc2ccc(O)cc2)NC(=O)[C@H]([C@@H](C)CC)NC1=O` (single isomer, unassigned) [A-UBI-SAHN D306-Q313 (A)] here?
The Kd was 60 nM.

And the IC50 (NF-κB pathway)?
Its IC50 is 600 nM.

For `CC[C@H](C)[C@H](NC(=O)[C@H](CC(=O)O)NC(=O)[C@H](C)NC(=O)[C@H](CCC(N)=O)NC(=O)[C@H](C)NC(=O)[C@H](CCCCN)NC(=O)[C@@H](N)CC(C)C)C(=O)N[C@@H](Cc1ccc(O)cc1)C(=O)N[C@@H](CCCCN)C(=O)N[C@@H](C)C(=O)N[C@@H](CCCNC(=N)N)C(=O)N[C@@H](Cc1ccccc1)C(=O)N[C@@H](CCC(N)=O)C(=O)N[C@@H](C)C(=O)N[C@@H](CCC(=O)O)C(=O)N[C@@H](CCCNC(=N)N)C(=O)N[C@@H](Cc1c[nH]cn1)C(=O)N[C@@H](C)C(=O)N[C@@H](CCCNC(=N)N)C(=O)N[C@@H](CCC(=O)O)C(=O)N[C@@H](CCCCN)C(=O)O` [UBI, reference compound] (H-LKAQADIYKARFQAERHAREK-OH), which “IC 50 NF-κB inhibition” value (NF-κB pathway) is on record?
Its value is “N.I*”.

With `CC[C@H](C)[C@H](NC(=O)[C@H](CC(=O)O)NC(=O)C(C)(C)NC(=O)[C@H](CCC(N)=O)NC(=O)C(C)(C)NC(=O)[C@H](CCCCN)NC(=O)[C@@H](N)CC(C)C)C(=O)N[C@@H](Cc1ccc(O)cc1)C(=O)N[C@@H](CCCCN)C(=O)NC(C)(C)C(=O)N[C@@H](CCCNC(=N)N)C(=O)N[C@@H](Cc1ccccc1)C(=O)N[C@@H](CCC(N)=O)C(=O)NC(C)(C)C(=O)N[C@@H](CCC(=O)O)C(=O)N[C@@H](CCCNC(=N)N)C(=O)N[C@@H](Cc1c[nH]cn1)C(=O)NC(C)(C)C(=O)N[C@@H](CCCNC(=N)N)C(=O)N[C@@H](CCC(=O)O)C(=O)N[C@@H](CCCCN)C(=O)O` [UBI-AIB, LKAibQAibDIYKAibRFQAibERHAibREK] (HELM PEPTIDE1{L.K.[Aib].Q.[Aib].D.I.Y.K.[Aib].R.F.Q.[Aib].E.R.H.[Aib].R.E.K}$$$$V2.0) as the compound, how does the “IC 50 NF-κB inhibition” value (NF-κB pathway) read?
The value was “N.I*”.

For `CC[C@H](C)[C@H](NC(=O)[C@H](CC(=O)O)NC(=O)[C@H](C)NC(=O)[C@H](CCC(N)=O)NC(=O)[C@H](C)NC(=O)[C@H](CCCCN)NC(=O)[C@H](CC(C)C)NC(=O)[C@H](CSC1CC(=O)N(CCNC(=O)CCC2=[N+]3C(=Cc4c(C)cc(C)n4[B-]3(F)F)C=C2)C1=O)NC(C)=O)C(=O)N[C@@H](Cc1ccc(O)cc1)C(=O)N[C@@H](CCCCN)C(=O)N[C@@]1(C)CCCC=CCCC[C@@](C)(C(=O)N[C@@H](CCC(=O)O)C(=O)N[C@@H](CCCNC(=N)N)C(=O)N[C@@H](Cc2c[nH]cn2)C(=O)N[C@@H](C)C(=O)N[C@@H](CCCNC(=N)N)C(=O)N[C@@H](CCC(=O)O)C(=O)N[C@@H](CCCCN)C(N)=O)NC(=O)[C@H](CCC(N)=O)NC(=O)[C@H](Cc2ccccc2)NC(=O)[C@H](CCCNC(=N)N)NC1=O` (some centres unmarked) [UBI-SAHN A310-A314, LKAQADIYKX4RFQX6ERHAREK] (Ac-C(BODIPYFLEthylmaleimide)LKAQADIYK[S5]RFQ[S5]ERHAREK-NH2; staple 11-15), which ΔS [1] is on record?
Its ΔS is −11 cal. mol^−1.K^−1.

And the Tm ([1]; thermal denaturation by CD)?
The Tm was 15 ± 0.3 C°.

And the ΔH ([1]; van't Hoff enthalpy change at Tm)?
The ΔH was -3.2 kcal/mol.

And the “α-helical content at 1° C.” value [2]?
Its value is 65%.

What about the Kd (CC2-LZ domain of NEMO; read-out: Binding affinity (FP) at 0.1 μM) of the same compound?
The Kd was ~360000 nM.

What about the “Binding affinity (FP) at 10 μM” value (CC2-LZ domain of NEMO; fixed peptide concentration 10 μM) of the same compound?
Its value is “Very weak”.

What about the “IC 50 NF-κB inhibition” value (NF-κB pathway) of the same compound?
Its value is “N.I*”.

For “LKAQAX2IYKARFX5AERHAREK (LKAQA[R8]IYKARF[S5]AERHAREK; staple 6-13) [UBI-SAHN D306-Q313]”, which “FACS peak median, first or only peak” value (70Z3-C3 cells) is on record?
Its value is 8.

What about the “FACS peak median, second peak” value (70Z3-C3 cells) of the same compound?
Its value is 52.

What about the “IC 50 NF-κB inhibition” value (NF-κB pathway) of the same compound?
The value was “N.I*”.

With “LKX1QADIYKX4RFQAERHAREK [UBI-SAHN A303-A310]” as the compound, how does the “FACS peak median, first or only peak” value (70Z3-C3 cells) read?
Its value is 8.

And the “IC 50 NF-κB inhibition” value (NF-κB pathway)?
Its value is “N.I*”.
